From US8557816B2, “Aurora kinase modulators and method of use” (Amgen Inc., priority 2007, dated 2013)

Tests used:
AuroraA-TPX2 = molecular target: T1, AuroraA-TPX2 (Homo sapiens, UniProt O14965); test: AuroraA-TPX2 Homogeneous Time Resolved Fluorescent (HTRF) kinase assay; type: biochemical; conditions: average; read-out: AurA_IC50_IP (uM Avg)
T1 construct: 20 μL of AuroraA-TPX2 KD GST for a final volume of about 41 μL; GST
T1 sequence (O14965 133-383 limits assumed): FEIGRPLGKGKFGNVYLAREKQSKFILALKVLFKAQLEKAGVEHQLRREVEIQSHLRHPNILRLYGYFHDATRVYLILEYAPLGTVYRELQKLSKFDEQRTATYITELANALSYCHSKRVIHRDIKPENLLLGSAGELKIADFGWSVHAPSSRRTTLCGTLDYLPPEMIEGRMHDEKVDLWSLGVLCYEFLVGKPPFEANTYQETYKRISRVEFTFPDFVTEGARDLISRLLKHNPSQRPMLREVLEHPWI
T1 sequence (Q9ULW0 1-43 partner limits assumed): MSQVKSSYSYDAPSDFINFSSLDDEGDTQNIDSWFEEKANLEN
Summary of the method: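 HTRF read-out (Eu 615 nm to APC 655 nm) of phosphorylated biotin-PLK, detected with 0.02 nM europium anti-phosphoPLK antibody and 0.0005 mg/mL SA-APC after overnight equilibration.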

AuroraB = molecular target: T2, AuroraB (Homo sapiens, UniProt Q96GD4); test: AuroraB Homogeneous Time Resolved Fluorescent (HTRF) kinase assay; type: biochemical; conditions: average; read-out: AurB_IC50_IP (uM Avg)
T2 construct: 20 μL of AuroraB FL H is for a final volume of 41 μL; His
T2 sequence (Q96GD4 whole entry): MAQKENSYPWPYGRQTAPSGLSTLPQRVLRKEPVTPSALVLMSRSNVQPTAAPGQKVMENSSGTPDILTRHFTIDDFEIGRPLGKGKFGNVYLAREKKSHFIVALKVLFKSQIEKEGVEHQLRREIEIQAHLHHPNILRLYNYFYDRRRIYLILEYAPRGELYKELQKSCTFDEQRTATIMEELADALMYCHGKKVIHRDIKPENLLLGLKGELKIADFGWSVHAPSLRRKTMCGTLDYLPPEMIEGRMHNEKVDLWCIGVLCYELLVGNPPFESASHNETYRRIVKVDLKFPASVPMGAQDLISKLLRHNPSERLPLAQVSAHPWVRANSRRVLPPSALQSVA
Summary of the method: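 Full-length His-tagged kinase phosphorylates biotinylated Histone H3 (0.1 μM final) with ATP in pH 7.5 HEPES containing MgCl, MnCl, DTT and BSA for about 90 min. EDTA-containing detection mix with SA-APC and Eu-anti-phosphoHistone H3 then equilibrated about 60 min; HTRF read with 320 nm excitation, emissions 615/655 nm.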

Compound	IC50 (AuroraA-TPX2)	IC50 (AuroraB)
COc1cnc2c(Oc3ccc(Nc4nnc(-c5cncnc5)c5ccccc45)cc3)ccnc2c1 [compound 215, N-(4-((7-(methyloxy)-1,5-naphthyridin-4-yl)oxy)phenyl)-4-(5-pyrimidinyl)-1-phthalazinamine]	0.743 µM	0.024 µM
COc1cnc2c(Oc3ccc(Nc4nnc(-c5cnn(C)c5)c5ccccc45)cc3)ccnc2c1 [compound 216, N-(4-((7-(methyloxy)-1,5-naphthyridin-4-yl)oxy)phenyl)-4-(1-methyl-1H-pyrazol-4-yl)-1-phthalazinamine]	0.16 µM	0.006 µM
N#Cc1ccc(-c2nnc(Nc3ccc(Oc4ccnc5cc(C#N)ccc45)cc3)c3ccccc23)cc1 [compound 217, 4-((4-((4-(4-cyanophenyl)-1-phthalazinyl)amino)phenyl)oxy)-7-quinolinecarbonitrile]	0.454 µM	0.016 µM
COc1cnc2c(Oc3ccc(Nc4nnc(-c5ccccc5)c5ccsc45)cc3)ccnc2c1 [compound 218, N-(4-((7-(methyloxy)-1,5-naphthyridin-4-yl)oxy)phenyl)-4-phenylthieno[2,3-d]pyridazin-7-amine]	0.027 µM	0.003 µM
COc1cnc2c(Oc3ccc(Nc4nnc(-c5ccc(Cl)cc5)c5ccccc45)cn3)ccnc2c1 [compound 222, 4-(4-chlorophenyl)-N-(6-((7-(methyloxy)-1,5-naphthyridin-4-yl)oxy)-3-pyridinyl)-1-phthalazinamine]	0.047 µM	0.006 µM
COc1cnc2c(Oc3ccc(Nc4nnc(-c5ccnn5C)c5ccccc45)cc3)ccnc2c1 [compound 223, N-(4-((7-(methyloxy)-1,5-naphthyridin-4-yl)oxy)phenyl)-4-(1-methyl-1H-pyrazol-5-yl)-1-phthalazinamine]	1.33 µM	0.039 µM
COc1cc2nccc(Oc3ccc(Nc4nnc(-c5ccccc5)c5ccccc45)cc3)c2cc1C(N)=O [compound 225, 7-(methyloxy)-4-((4-((4-phenyl-1-phthalazinyl)amino)phenyl)oxy)-6-quinolinecarboxamide]	0.023 µM	0.004 µM
COc1cnc2c(Oc3ccc(Nc4nnc(-c5ccc(Cl)cn5)c5ccccc45)cc3)ccnc2c1 [compound 228, 4-(5-chloro-2-pyridinyl)-N-(4-((7-(methyloxy)-1,5-naphthyridin-4-yl)oxy)phenyl)-1-phthalazinamine]	0.034 µM	0.004 µM
CCc1ccc(-c2nnc(Nc3ccc(Oc4ccnc5cc(OC)cnc45)cc3)c3ccccc23)s1 [compound 229, 4-(5-ethyl-2-thienyl)-N-(4-((7-(methyloxy)-1,5-naphthyridin-4-yl)oxy)phenyl)-1-phthalazinamine]	0.024 µM	0.007 µM
c1ccc(-c2nnc(Nc3ccc(Oc4ccnc5c4NCCC5)cc3)c3ccccc23)cc1 [compound 230, 4-phenyl-N-(4-(5,6,7,8-tetrahydro-1,5-naphthyridin-4-yloxy)phenyl)-1-phthalazinamine]	5 µM	0.031 µM
N#Cc1ccc2c(Oc3ccc(Nc4nnc(-c5ccc(Cl)c(C#N)c5)c5ccccc45)cc3)ccnc2c1 [compound 231, 4-((4-((4-(4-chloro-3-cyanophenyl)-1-phthalazinyl)amino)phenyl)oxy)-7-quinolinecarbonitrile]	0.379 µM	0.032 µM
COc1cnc2c(Sc3ccc(Nc4nnc(-c5ccc(Cl)cc5)c5ccccc45)cc3)ccnc2c1 [compound 232, 4-(4-chlorophenyl)-N-(4-((7-(methyloxy)-1,5-naphthyridin-4-yl)thio)phenyl)-1-phthalazinamine]	0.036 µM	0.015 µM
COc1cnc2c(Oc3ccc(Nc4nnc(-c5ccccc5)cc4C(C)C)cc3)ccnc2c1 [compound 234, 4-(1-methylethyl)-N-(4-((7-(methyloxy)-1,5-naphthyridin-4-yl)oxy)phenyl)-6-phenyl-3-pyridazinamine]	0.173 µM	0.006 µM
COc1ccc2nccc(Oc3ccc(Nc4nnc(-c5ccccc5)c5ccccc45)cc3)c2c1 [compound 238, N-(4-((6-(methyloxy)-4-quinolinyl)oxy)phenyl)-4-phenyl-1-phthalazinamine]	0.265 µM	0.005 µM
COc1ccc2nccc(Oc3ccc(Nc4nnc(-c5ccc(Cl)cc5)c5ccccc45)cc3)c2c1 [compound 239, 4-(4-chlorophenyl)-N-(4-((6-(methyloxy)-4-quinolinyl)oxy)phenyl)-1-phthalazinamine]	0.12 µM	0.008 µM
COc1cccc(-c2nnc(Nc3ccc(Oc4ccnc5cc(-c6cncn6C)sc45)cc3)c3ccccc23)n1 [compound 240, N-(4-((2-(1-methyl-1H-imidazol-5-yl)thieno[3,2-b]pyridin-7-yl)oxy)phenyl)-4-(6-(methyloxy)-2-pyridinyl)-1-phthalazinamine]	0.006 µM	0.001 µM
Clc1ccc(-c2nnc(Nc3ccc(Oc4ccnc5[nH]ccc45)cc3)c3ccccc23)cc1 [compound 241, 4-(4-chlorophenyl)-N-(4-(1H-pyrrolo[2,3-b]pyridin-4-yloxy)phenyl)-1-phthalazinamine]	0.089 µM	0.001 µM
N#Cc1ccc2c(Oc3ccc(Nc4nnc(-c5ccc(Cl)cc5)c5ccccc45)cc3)ccnc2c1 [compound 242, 4-((4-((4-(4-chlorophenyl)-1-phthalazinyl)amino)phenyl)oxy)-7-quinolinecarbonitrile]	0.173 µM	0.022 µM

More lines, now with the values ahead:

IC50 (AuroraA-TPX2)	IC50 (AuroraB)	Compound
0.079 µM	0.011 µM	COc1cnc2c(Oc3ccc(Nc4nnc(-c5ccc(OC)c(C)c5)c5ccccc45)cc3)ccnc2c1 [compound 213, 4-(3-methyl-4-(methyloxy)phenyl)-N-(4-((7-(methyloxy)-1,5-naphthyridin-4-yl)oxy)phenyl)-1-phthalazinamine]
0.085 µM	0.007 µM	COc1cnc2c(Oc3ccc(Nc4nnc(-c5ccc(F)c(F)c5)c5ccccc45)cc3)ccnc2c1 [compound 214, 4-(3,4-difluorophenyl)-N-(4-((7-(methyloxy)-1,5-naphthyridin-4-yl)oxy)phenyl)-1-phthalazinamine]
0.051 µM	0.01 µM	COc1cnc2c(Oc3ccc(Nc4nnc(-c5cccc(Cl)c5)c5ccccc45)cc3)ccnc2c1 [compound 219, 4-(3-chlorophenyl)-N-(4-((7-(methyloxy)-1,5-naphthyridin-4-yl)oxy)phenyl)-1-phthalazinamine]
0.047 µM	0.004 µM	COc1cnc2c(Oc3ccc(Nc4nnc(-c5ccc(F)cc5)c5ccccc45)cc3)ccnc2c1 [compound 220, 4-(4-fluorophenyl)-N-(4-((7-(methyloxy)-1,5-naphthyridin-4-yl)oxy)phenyl)-1-phthalazinamine]
0.026 µM	0.007 µM	CCc1ccc(-c2nnc(Nc3ccc(Oc4ccnc5cc(OC)cnc45)cc3)c3ccccc23)cc1 [compound 221, 4-(4-ethylphenyl)-N-(4-((7-(methyloxy)-1,5-naphthyridin-4-yl)oxy)phenyl)-1-phthalazinamine]
0.034 µM	0.011 µM	COc1cnc2c(Oc3ccc(Nc4nnc(-c5ccc(C)c(Cl)c5)c5ccccc45)cc3)ccnc2c1 [compound 224, 4-(3-chloro-4-methylphenyl)-N-(4-((7-(methyloxy)-1,5-naphthyridin-4-yl)oxy)phenyl)-1-phthalazinamine]
0.187 µM	0.014 µM	COc1cnc2c(Oc3ccc(Nc4nnc(-c5cccc(C(=O)N(C)C)c5)c5ccccc45)cc3)ccnc2c1 [compound 226, N,N-dimethyl-3-(4-((4-((7-(methyloxy)-1,5-naphthyridin-4-yl)oxy)phenyl)amino)-1-phthalazinyl)benzamide]
0.051 µM	0.003 µM	COc1cnc2c(Oc3ccc(Nc4nnc(-c5ccc(OC)c(F)c5)c5ccccc45)cc3)ccnc2c1 [compound 227, 4-(3-fluoro-4-(methyloxy)phenyl)-N-(4-((7-(methyloxy)-1,5-naphthyridin-4-yl)oxy)phenyl)-1-phthalazinamine]
0.845 µM	0.021 µM	COc1cnc2c(Oc3ccc(Nc4nnc(-c5ccc(Cl)cc5C)c5ccccc45)cc3)ccnc2c1 [compound 233, 4-(4-chloro-2-methylphenyl)-N-(4-((7-(methyloxy)-1,5-naphthyridin-4-yl)oxy)phenyl)-1-phthalazinamine]
0.123 µM	0.003 µM	COc1cnc2c(Oc3ccc(Nc4nnc(-c5ccc(Cl)nc5)c5ccccc45)cc3)ccnc2c1 [compound 235, 4-(6-chloro-3-pyridinyl)-N-(4-((7-(methyloxy)-1,5-naphthyridin-4-yl)oxy)phenyl)-1-phthalazinamine]
0.027 µM	0.008 µM	COc1cnc2c(Oc3ccc(Nc4nnc(-c5ccc(Cl)c(C)c5)c5ccccc45)cc3)ccnc2c1 [compound 236, 4-(4-chloro-3-methylphenyl)-N-(4-((7-(methyloxy)-1,5-naphthyridin-4-yl)oxy)phenyl)-1-phthalazinamine]
0.038 µM	0.005 µM	COc1cnc2c(Oc3ccc(Nc4nnc(-c5ccc(SC)cc5)c5ccccc45)cc3)ccnc2c1 [compound 237, N-(4-((7-(methyloxy)-1,5-naphthyridin-4-yl)oxy)phenyl)-4-(4-(methylthio)phenyl)-1-phthalazinamine]
